# Measurements reported in patent US10201546B2, “Quinolinyl modulators of RORγt” (Janssen Pharmaceutica NV, priority 2013, dated 2019).
# Target: human RORγt LBD fused to the DNA binding domain of the GAL4 protein (Homo sapiens (Human), UniProt P51449)
# Test: RORγt (LBD) reporter assay in HEK293T cells
# Format: cell-based
# Set-up: RORγt (LBD) Reporter Assay, % inhibition: dose or concentration left out as unconfirmed
# Conditions: not given
# Sequence of human RORγt LBD fused to the DNA binding domain of the GAL4 protein (P51449 258-518): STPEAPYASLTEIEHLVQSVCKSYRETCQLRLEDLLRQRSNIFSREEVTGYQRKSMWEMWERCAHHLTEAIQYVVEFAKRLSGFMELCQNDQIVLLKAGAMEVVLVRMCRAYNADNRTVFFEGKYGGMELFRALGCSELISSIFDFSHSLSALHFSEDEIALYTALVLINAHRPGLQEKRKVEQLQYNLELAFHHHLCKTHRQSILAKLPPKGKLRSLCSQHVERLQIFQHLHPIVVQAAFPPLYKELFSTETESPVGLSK
row,"RORγt (LBD) Reporter Assay, % inhibition [%]",SMILES
1,98,"COc1nc2ccc(C(O)(c3ccc(C)nc3C)c3cnnn3C)cc2c(Cl)c1C1CCCC1 (single isomer, unassigned) [Example 136c, (4-Chloro-3-cyclopentyl-2-methoxyquinolin-6-yl)(2,6-dimethylpyridin-3-yl)(1-methyl-1H-1,2,3-triazol-5-yl)methanol]"
2,76,"COc1nc2ccc(C(O)(c3ccc(C)nc3C)c3cnnn3C)cc2c(Cl)c1C1CCCC1 (single isomer, unassigned) [Example 136b, (4-Chloro-3-cyclopentyl-2-methoxyquinolin-6-yl)(2,6-dimethylpyridin-3-yl)(1-methyl-1H-1,2,3-triazol-5-yl)methanol]"
3,97,"COc1nc2ccc(C(O)(c3ccc(C)nc3C)c3cnnn3C)cc2c(Cl)c1C1CCCC1 (centres unmarked) [Example 136a, (4-Chloro-3-cyclopentyl-2-methoxyquinolin-6-yl)(2,6-dimethylpyridin-3-yl)(1-methyl-1H-1,2,3-triazol-5-yl)methanol]"
4,90,"COc1nc2ccc(C(O)(c3ccc(C)nc3C)c3cnnn3C)cc2c(Cl)c1CC(C)C (single isomer, unassigned) [Example 133b, (4-Chloro-3-isobutyl-2-methoxyquinolin-6-yl)(2,6-dimethylpyridin-3-yl)(1-methyl-1H-1,2,3-triazol-5-yl)methanol]"

# Same assay, conditions: @ 6 μM
row,"RORγt (LBD) Reporter Assay, % inhibition @ 6 μM [%]",SMILES
1,−2.5,"COCCOc1c(OC)nc2ccc(C(O)(c3ccc(C(F)(F)F)nc3)c3cncn3C)cc2c1Cl (single isomer, unassigned) [Example 79c, [4-Chloro-2-methoxy-3-(2-methoxyethoxy)quinolin-6-yl](1-methyl-1H-imidazol-5-yl)[6-(trifluoromethyl)pyridin-3-yl]methanol]"
2,87,"COc1nc2ccc(C(O)(c3ccc(C)nc3C)c3cnnn3C)cc2c(Cl)c1CN1CCC(n2cccn2)CC1 (single isomer, unassigned) [Example 105c, (3-((4-(1H-Pyrazol-1-yl)piperidin-1-yl)methyl)-4-chloro-2-methoxyquinolin-6-yl)(2,6-dimethylpyridin-3-yl)(1-methyl-1H-1,2,3-triazol-5-yl)methanol]"
3,−80,"COc1nc2ccc(C(O)(c3ccc(C)nc3C)c3cnnn3C)cc2c(Cl)c1OCc1nccs1 (single isomer, unassigned) [Example 73c, [4-Chloro-2-methoxy-3-(1,3-thiazol-2-ylmethoxy)quinolin-6-yl](2,6-dimethylpyridin-3-yl)(1-methyl-1H-1,2,3-triazol-5-yl)methanol]"
4,93,"COc1nc2ccc(C(O)(c3ccc(C)nc3C)c3cnnn3C)cc2c(Cl)c1C (single isomer, unassigned) [Example 12c, (4-Chloro-2-methoxy-3-methylquinolin-6-yl)(2,6-dimethylpyridin-3-yl)(1-methyl-1H-1,2,3-triazol-5-yl)methanol]"
5,61,"COc1nc2ccc(C(O)(c3ccc(C)nc3C)c3cnnn3C)cc2c(Cl)c1OC1CCOCC1 (single isomer, unassigned) [Example 69c, [4-Chloro-2-methoxy-3-(tetrahydro-2H-pyran-4-yloxy)quinolin-6-yl](2,6-dimethylpyridin-3-yl)(1-methyl-1H-1,2,3-triazol-5-yl)methanol]"
6,86,"COc1nc2ccc(C(O)(c3ccc(C)nc3C)c3cnnn3C)cc2c(Cl)c1OCC1CC1(F)F (single isomer, unassigned) [Example 72c, {4-Chloro-3-[(2,2-difluorocyclopropyl)methoxy]-2-methoxyquinolin-6-yl}(2,6-dimethylpyridin-3-yl)(1-methyl-1H-1,2,3-triazol-5-yl)methanol]"
7,36,"COc1nc2ccc(C(O)(c3cncn3C)C3CCN(C(C)=O)CC3)cc2c(Cl)c1CC1CCOCC1 (single isomer, unassigned) [Example 5c, 1-(4-((4-Chloro-2-methoxy-3-((tetrahydro-2H-pyran-4-yl)methyl)quinolin-6-yl)(hydroxy)(1-methyl-1H-imidazol-5-yl)methyl)piperidin-1-yl)ethanone]"
8,87,"COc1nc2ccc(C(O)(c3ccc(C)nc3C)c3cnnn3C)cc2c(Cl)c1OCC1CC1 (single isomer, unassigned) [Example 68c, [4-Chloro-3-(cyclopropylmethoxy)-2-methoxyquinolin-6-yl](2,6-dimethylpyridin-3-yl)(1-methyl-1H-1,2,3-triazol-5-yl)methanol]"
9,37,"COc1nc2ccc(C(O)(c3ccc(C)nc3C)c3cnnn3C)cc2c(Cl)c1OC1CCOCC1 (single isomer, unassigned) [Example 69b, [4-Chloro-2-methoxy-3-(tetrahydro-2H-pyran-4-yloxy)quinolin-6-yl](2,6-dimethylpyridin-3-yl)(1-methyl-1H-1,2,3-triazol-5-yl)methanol]"
10,6,"COc1nc2ccc(C(O)(c3ccc(C)nc3C)c3cnnn3C)cc2c(Cl)c1CN1CCC(F)CC1 (single isomer, unassigned) [Example 108b, (4-Chloro-3-((4-fluoropiperidin-1-yl)methyl)-2-methoxyquinolin-6-yl)(2,6-dimethylpyridin-3-yl)(1-methyl-1H-1,2,3-triazol-5-yl)methanol]"
11,33,"COc1nc2ccc(C(O)(c3ccc(C)nc3C)c3cnnn3C)cc2c(Cl)c1CN1CCC(n2cccn2)CC1 (single isomer, unassigned) [Example 105b, (3-((4-(1H-Pyrazol-1-yl)piperidin-1-yl)methyl)-4-chloro-2-methoxyquinolin-6-yl)(2,6-dimethylpyridin-3-yl)(1-methyl-1H-1,2,3-triazol-5-yl)methanol]"
12,54,"COc1nc2ccc(C(O)(c3ccc(C)nc3C)c3cnnn3C)cc2c(Cl)c1CN1CCC(F)(F)CC1 (single isomer, unassigned) [Example 107c, (4-Chloro-3-((4,4-difluoropiperidin-1-yl)methyl)-2-methoxyquinolin-6-yl)(2,6-dimethylpyridin-3-yl)(1-methyl-1H-1,2,3-triazol-5-yl)methanol]"

# Same assay, conditions: HEK-293T, read-out: RORγt (LBD) Reporter Assay, % inhibition @ 6 μM, @ 6 μM
row,inhibition at 6 µM [%],SMILES
1,97,"COc1nc2ccc(C(O)(c3ccc(C(F)(F)F)nc3)c3cncn3C)cc2c(Cl)c1CN1CCC(C(F)(F)F)CC1 (single isomer, unassigned) [Example 112b, (4-Chloro-2-methoxy-3-((4-(trifluoromethyl)piperidin-1-yl)methyl)quinolin-6-yl)(1-methyl-1H-imidazol-5-yl)(6-(trifluoromethyl)pyridin-3-yl)methanol]"
2,101,"COc1nc2ccc(C(O)(c3ccc(C)nc3C)c3cnnn3C)cc2c(Cl)c1CN1CCC(C(F)(F)F)CC1 (centres unmarked) [Example 103a, (4-Chloro-2-methoxy-3-((4-(trifluoromethyl)piperidin-1-yl)methyl)quinolin-6-yl)(2,6-dimethylpyridin-3-yl)(1-methyl-1H-1,2,3-triazol-5-yl)methanol]"
3,78,"COc1nc2ccc(C(O)(c3ccc(C)nc3C)c3cnnn3C)cc2c(Cl)c1CC1CCC(F)(F)CC1 (single isomer, unassigned) [Example 1b, (4-Chloro-3-((4,4-difluorocyclohexyl)methyl)-2-methoxyquinolin-6-yl)(2,6-dimethylpyridin-3-yl)(1-methyl-1H-1,2,3-triazol-5-yl)methanol]"
4,57,"COc1nc2ccc(C(O)(c3ccc(C)nc3C)c3cnnn3C)cc2c(Cl)c1OC1CCOCC1 (centres unmarked) [Example 69a, [4-Chloro-2-methoxy-3-(tetrahydro-2H-pyran-4-yloxy)quinolin-6-yl](2,6-dimethylpyridin-3-yl)(1-methyl-1H-1,2,3-triazol-5-yl)methanol]"
5,33,"COc1nc2ccc(C(O)(c3cncn3C)C3CCN(C(C)=O)CC3)cc2c(Cl)c1CC1CCOCC1 (single isomer, unassigned) [Example 5b, 1-(4-((4-Chloro-2-methoxy-3-((tetrahydro-2H-pyran-4-yl)methyl)quinolin-6-yl)(hydroxy)(1-methyl-1H-imidazol-5-yl)methyl)piperidin-1-yl)ethanone]"
6,85,"COc1nc2ccc(C(O)(c3ccc(C)nc3C)c3cnnn3C)cc2c(Cl)c1OCC1CC1(F)F (centres unmarked) [Example 72a, {4-Chloro-3-[(2,2-difluorocyclopropyl)methoxy]-2-methoxyquinolin-6-yl}(2,6-dimethylpyridin-3-yl)(1-methyl-1H-1,2,3-triazol-5-yl)methanol]"
7,-129,"COc1nc2ccc(C(O)(c3ccc(C)nc3C)c3cnnn3C)cc2c(Cl)c1OCc1ncccn1 (single isomer, unassigned) [Example 66b, [4-Chloro-2-methoxy-3-(pyrimidin-2-ylmethoxy)quinolin-6-yl](2,6-dimethylpyridin-3-yl)(1-methyl-1H-1,2,3-triazol-5-yl)methanol]"
8,39,"COc1nc2ccc(C(O)(c3ccc(C)nc3C)c3cnnn3C)cc2c(Cl)c1OC1CCN(C)CC1 (single isomer, unassigned) [Example 65b, {4-Chloro-2-methoxy-3-[(1-methylpiperidin-4-yl)oxy]quinolin-6-yl}(2,6-dimethylpyridin-3-yl)(1-methyl-1H-1,2,3-triazol-5-yl)methanol]"
9,60,"COc1nc2ccc(C(O)(c3ccc(C)nc3C)c3cnnn3C)cc2c(Cl)c1CN1CC(C(F)(F)F)C1 (single isomer, unassigned) [Example 114b, (4-Chloro-2-methoxy-3-((3-(trifluoromethyl)azetidin-1-yl)methyl)quinolin-6-yl)(2,6-dimethylpyridin-3-yl)(1-methyl-1H-1,2,3-triazol-5-yl)methanol]"
10,90,"COc1nc2ccc(C(O)(c3ccnc(C(F)(F)F)c3)c3cncn3C)cc2c(Cl)c1CN1CCC(C(F)(F)F)CC1 (single isomer, unassigned) [Example 100b, (4-Chloro-2-methoxy-3-((4-(trifluoromethyl)piperidin-1-yl)methyl)quinolin-6-yl)(1-methyl-1H-imidazol-5-yl)(2-(trifluoromethyl)pyridin-4-yl)methanol]"
